According to PubChem BioAssay (NCI):
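Compound exposure: 48 hours, 5 concentrations, 96-well plates. Here, GI50 denotes the concentration required for 50% inhibition of growth. At the TGI there is no net growth.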

How the values were obtained:
Assay in all cases: growth of human tumour cells (NCI), 48 h
[1] = system: 786-0 renal
[2] = system: A498 renal
[3] = system: A549 NSCLC
[4] = system: ACHN renal
[5] = system: BT-549 breast
[6] = system: CAKI-1 renal
[7] = system: CCRF-CEM leukemia
[8] = system: COLO 205 colon
[9] = system: DU-145 prostate
[10] = system: EKVX NSCLC
[11] = system: HCC-2998 colon
[12] = system: HCT-116 colon
[13] = system: HCT-15 colon
[14] = system: HL-60(TB) leukemia
[15] = system: HOP-62 NSCLC
[16] = system: HOP-92 NSCLC
[17] = system: HS 578T breast
[18] = system: HT29 colon
[19] = system: IGROV1 ovarian
[20] = system: K-562 leukemia
[21] = system: KM12 colon
[22] = system: LOX IMVI melanoma
[23] = system: M14 melanoma
[24] = system: MALME-3M melanoma
[25] = system: MCF7 breast
[26] = system: MDA-MB-231 breast
[27] = system: MDA-MB-435
[28] = system: MOLT-4 leukemia
[29] = system: NCI-H226 lung
[30] = system: NCI-H23 lung
[31] = system: NCI-H460 lung
[32] = system: NCI-H522 lung
[33] = system: NCI/ADR-RES ovarian
[34] = system: OVCAR-3 ovarian
[35] = system: OVCAR-4 ovarian
[36] = system: OVCAR-5 ovarian
[37] = system: OVCAR-8 ovarian
[38] = system: PC-3 prostate
[39] = system: RPMI-8226 leukemia
[40] = system: RXF 393 renal
[41] = system: SF-268 CNS
[42] = system: SF-295 CNS
[43] = system: SF-539 CNS
[44] = system: SK-MEL-2 melanoma
[45] = system: SK-MEL-28 melanoma
[46] = system: SK-MEL-5 melanoma
[47] = system: SK-OV-3 ovarian
[48] = system: SN12C renal
[49] = system: SNB-19 CNS
[50] = system: SNB-75 CNS
[51] = system: SR leukemia
[52] = system: SW-620 colon
[53] = system: T-47D breast
[54] = system: TK-10 renal
[55] = system: U251 CNS
[56] = system: UACC-257 melanoma
[57] = system: UACC-62 melanoma
[58] = system: UO-31 renal

CC1=C2[C@@H](CC1)[C@]1(C)O[C@@](C(C)C)(C[C@H]1OC(=O)CO)[C@H]2OC(=O)CCCc1ccccc1
GI50 [1]: 13.1 µM
TGI [1]: 28.7 µM
GI50 [2]: 6.4 µM
TGI [2]: 19.6 µM
GI50 [3]: 6.96 µM
TGI [3]: 41.5 µM
GI50 [4]: 7.02 µM
TGI [4]: 19.3 µM
GI50 [5]: 4.44 µM
TGI [5]: 15.7 µM
GI50 [6]: 4.24 µM
TGI [6]: 16.7 µM
GI50 [7]: 4.65 µM
TGI [7]: 34.7 µM
GI50 [8]: 6.52 µM
TGI [8]: 21.8 µM
GI50 [9]: 8.82 µM
TGI [9]: 20.9 µM
GI50 [10]: 15 µM
TGI [10]: 30.8 µM
GI50 [11]: 12 µM
TGI [11]: 24.6 µM
GI50 [12]: 3.54 µM
TGI [12]: 13.9 µM
GI50 [13]: 9.02 µM
TGI [13]: 22.2 µM
GI50 [14]: 2.21 µM
TGI [14]: 5.27 µM
GI50 [15]: 13.4 µM
TGI [15]: 26.8 µM
GI50 [16]: 3.86 µM
TGI [16]: 18 µM
GI50 [17]: 2.43 µM
TGI [17]: 9.23 µM
GI50 [18]: 10.8 µM
TGI [18]: 26.1 µM
GI50 [19]: 3.71 µM
TGI [19]: 14.1 µM
GI50 [20]: 5.88 µM
TGI [20]: 44.7 µM
GI50 [21]: 5.97 µM
TGI [21]: 20.1 µM
GI50 [22]: 5.88 µM
TGI [22]: 18.5 µM
GI50 [23]: 7.78 µM
TGI [23]: 21.8 µM
GI50 [24]: 6.52 µM
TGI [24]: 19.8 µM
GI50 [25]: 13.2 µM
TGI [25]: 29.7 µM
GI50 [26]: 12.9 µM
TGI [26]: 31.8 µM
GI50 [27]: 13.1 µM
TGI [27]: 26.2 µM
GI50 [28]: 3.66 µM
TGI [28]: 15.2 µM
GI50 [29]: 6.04 µM
TGI [29]: 22.9 µM
GI50 [30]: 11.3 µM
TGI [30]: 27.6 µM
GI50 [31]: 9.1 µM
TGI [31]: 22.9 µM
GI50 [32]: 7.51 µM
TGI [32]: 24.6 µM
GI50 [33]: 3.87 µM
TGI [33]: 20 µM
GI50 [34]: 6.94 µM
TGI [34]: 22.5 µM
GI50 [35]: 11.9 µM
TGI [35]: 29.1 µM
GI50 [36]: 15.7 µM
TGI [36]: 30 µM
GI50 [37]: 4.58 µM
TGI [37]: 26.8 µM
GI50 [38]: 3.63 µM
TGI [38]: 16.1 µM
GI50 [39]: 3.08 µM
TGI [39]: > 100 µM
GI50 [40]: 11.9 µM
TGI [40]: 25.6 µM
GI50 [41]: 11.5 µM
TGI [41]: 32.6 µM
GI50 [42]: 12.5 µM
TGI [42]: 24.9 µM
GI50 [43]: 14.2 µM
TGI [43]: 27.5 µM
GI50 [44]: 11.7 µM
TGI [44]: 27.2 µM
GI50 [45]: 13.9 µM
TGI [45]: 26.8 µM
GI50 [46]: 7.91 µM
TGI [46]: 20.3 µM
GI50 [47]: 16.6 µM
TGI [47]: 30.6 µM
GI50 [48]: 4.52 µM
TGI [48]: 18 µM
GI50 [49]: 12.4 µM
TGI [49]: 24.9 µM
GI50 [50]: 2.08 µM
TGI [50]: 18.5 µM
GI50 [51]: 11.3 µM
TGI [51]: 36.6 µM
GI50 [52]: 11 µM
TGI [52]: 25.4 µM
GI50 [53]: 2.54 µM
TGI [53]: 12.3 µM
GI50 [54]: 18.6 µM
TGI [54]: 32.8 µM
GI50 [55]: 5.61 µM
TGI [55]: 20.9 µM
GI50 [56]: 13.1 µM
TGI [56]: 27.2 µM
GI50 [57]: 3.42 µM
TGI [57]: 13.2 µM
GI50 [58]: 3.36 µM
TGI [58]: 14.7 µM

O=C(Nc1n[nH]c2nc(-c3ccc(O)cc3)c(Br)cc12)C1CC1
GI50 [1]: 4.55 µM
TGI [1]: 14.3 µM
GI50 [2]: 4.65 µM
TGI [2]: 14.4 µM
GI50 [3]: 4.98 µM
TGI [3]: > 21.7 µM
GI50 [4]: 2.62 µM
TGI [4]: > 21.8 µM
GI50 [5]: 5.78 µM
TGI [5]: 19.8 µM
GI50 [6]: 3.11 µM
TGI [6]: 16.5 µM
GI50 [7]: 1.82 µM
TGI [7]: > 25 µM
GI50 [8]: 3.18 µM
TGI [8]: 8.76 µM
GI50 [9]: 3.8 µM
TGI [9]: 20.4 µM
GI50 [10]: 6.34 µM
TGI [10]: 19 µM
GI50 [11]: 4.76 µM
TGI [11]: > 20.3 µM
GI50 [12]: 1.9 µM
TGI [12]: > 25 µM
GI50 [13]: 3.77 µM
TGI [13]: > 23.2 µM
GI50 [14]: 2.79 µM
TGI [14]: 15.4 µM
GI50 [15]: 5.32 µM
TGI [15]: 14 µM
GI50 [16]: 8.66 µM
TGI [16]: 18.3 µM
GI50 [17]: 4.15 µM
TGI [17]: 21.6 µM
GI50 [18]: 2.04 µM
TGI [18]: 13.8 µM
GI50 [19]: 5.75 µM
TGI [19]: > 20.6 µM
GI50 [20]: 2.86 µM
TGI [20]: > 25 µM
GI50 [21]: 1.54 µM
TGI [21]: 7.76 µM
GI50 [22]: 1.75 µM
TGI [22]: 13.1 µM
GI50 [23]: 3.97 µM
TGI [23]: 11.3 µM
GI50 [24]: 4.62 µM
TGI [24]: 12.5 µM
GI50 [25]: 1.05 µM
TGI [25]: 10.2 µM
GI50 [26]: 5.52 µM
TGI [26]: 16.8 µM
GI50 [27]: 2.71 µM
TGI [27]: 7.29 µM
GI50 [28]: 5.13 µM
TGI [28]: > 25 µM
GI50 [29]: 3.14 µM
TGI [29]: 13.5 µM
GI50 [30]: 4.78 µM
TGI [30]: 16.8 µM
GI50 [31]: 1.89 µM
TGI [31]: > 20.1 µM
GI50 [32]: 4.33 µM
TGI [32]: 12.1 µM
GI50 [33]: 6.49 µM
TGI [33]: > 25 µM
GI50 [34]: 1.39 µM
TGI [34]: 9.14 µM
GI50 [35]: 5.17 µM
TGI [35]: 14.4 µM
GI50 [36]: 7.46 µM
TGI [36]: 21.7 µM
GI50 [37]: 4.71 µM
TGI [37]: > 22.1 µM
GI50 [38]: 4.49 µM
TGI [38]: > 23.4 µM
GI50 [39]: 6.05 µM
TGI [39]: 15.7 µM
GI50 [40]: 1.18 µM
TGI [40]: 5.02 µM
GI50 [41]: 4.74 µM
TGI [41]: 16.5 µM
GI50 [42]: 2.38 µM
TGI [42]: 14.8 µM
GI50 [43]: 1.34 µM
TGI [43]: 6.27 µM
GI50 [44]: 3.07 µM
TGI [44]: 7.17 µM
GI50 [45]: 3.85 µM
TGI [45]: 9.88 µM
GI50 [46]: 0.607 µM
TGI [46]: 4.07 µM
GI50 [47]: 2.67 µM
TGI [47]: 11.8 µM
GI50 [48]: 3.41 µM
TGI [48]: 20.1 µM
GI50 [49]: 6.96 µM
TGI [49]: > 24.1 µM
GI50 [50]: 6.21 µM
TGI [50]: 12.5 µM
GI50 [51]: 1.53 µM
TGI [51]: > 15.4 µM
GI50 [52]: 4.36 µM
TGI [52]: > 25 µM
GI50 [53]: 3.81 µM
TGI [53]: 14.5 µM
GI50 [54]: 7.29 µM
TGI [54]: 17.4 µM
GI50 [55]: 4.39 µM
TGI [55]: > 20.2 µM
GI50 [56]: 6.36 µM
TGI [56]: 17 µM
GI50 [57]: 4.26 µM
TGI [57]: 11.9 µM
GI50 [58]: 3.93 µM
TGI [58]: 15.3 µM
